Source: patent US8354403B2, “Pyrrolidine derived beta 3 adrenergic receptor agonists” (Merck Sharp & Dohme Corp., priority 2009, dated 2013)

What follows are molecules tested against T1, human β3 adrenergic receptor (Homo sapiens, UniProt P13945) (assay: Beta-3 agonist in vitro functional assay: cAMP production (LANCE TR-FRET) in CHO cells stably transfected with the cloned β3 receptor). Settings: Table 4; cAMP, CHO cells; read-out: Human β3 agonist functional activity.
T1 construct: expressed in transfected cells; host or cells: Chinese hamster ovary (CHO) cells, stably transfected
Assay type: cell-based
How it was run: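 CHO cells stably expressing the cloned receptor, in HEPES-buffered HBSS with BSA and 0.6 mM IBMX, 6,000 cells/well, exposed to compound for 30 min at RT. cAMP read by LANCE TR-FRET against a cAMP standard curve. Isoproterenol defines maximal stimulation.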

T1 sequence (P13945 whole entry): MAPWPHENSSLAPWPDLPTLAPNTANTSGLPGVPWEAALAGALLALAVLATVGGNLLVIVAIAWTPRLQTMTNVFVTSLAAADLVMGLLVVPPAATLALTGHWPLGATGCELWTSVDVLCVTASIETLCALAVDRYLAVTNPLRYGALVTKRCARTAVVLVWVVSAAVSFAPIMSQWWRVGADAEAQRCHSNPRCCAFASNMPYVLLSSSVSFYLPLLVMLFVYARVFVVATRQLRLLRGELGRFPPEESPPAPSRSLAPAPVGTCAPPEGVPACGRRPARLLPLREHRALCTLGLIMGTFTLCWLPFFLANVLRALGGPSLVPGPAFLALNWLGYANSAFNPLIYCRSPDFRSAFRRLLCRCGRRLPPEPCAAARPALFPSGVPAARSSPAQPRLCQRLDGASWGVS

EC50 [µM]	SMILES
0.01 to 0.0999	C[C@@H]1CN(C(=O)c2ccc(C[C@@H]3CC[C@H]([C@H](O)c4ccccc4)N3)cc2)CC[C@@H]1n1cccn1 [Example 60]
0.1 to 0.999	O=C(c1ccc(C[C@@H]2CC[C@H]([C@H](O)c3ccccc3)N2)cc1)N1CCCC2(CCCNC2=O)C1 (stereo partly shown) [Example 39]
0.01 to 0.0999	O=C(OCc1ccccc1)C1CCCN(C(=O)c2ccc(C[C@@H]3CC[C@H]([C@H](O)c4ccccc4)N3)cc2)C1 (stereo partly shown) [Example 32]
0.1 to 0.999	O=C(c1ccc(C[C@@H]2CC[C@H]([C@H](O)c3ccccc3)N2)cc1)N1CCCCC1c1nccs1 (stereo partly shown) [Example 50]
0.1 to 0.999	Cc1noc(C2CCN(C(=O)c3ccc(C[C@@H]4CC[C@H]([C@H](O)c5ccccc5)N4)cc3)C2)n1 (stereo partly shown) [Example 11]

Same assay, conditions: Table 5; cAMP, CHO cells; read-out: Human β3 agonist functional activity

EC50 [µM]	SMILES
0.1 to 0.999	Cn1cc(C2CCN(C(=O)c3ccc(C[C@@H]4CC[C@H]([C@H](O)c5ccccc5)N4)cc3)CC2)nn1 [Example 97]
0.01 to 0.0999	CS(=O)(=O)C1CCN(C(=O)c2ccc(C[C@@H]3CC[C@H]([C@H](O)c4ccccc4)N3)cc2)CC1 [Example 122]
0.1 to 0.999	O=C(c1ccc(C[C@@H]2CC[C@H]([C@H](O)c3ccccc3)N2)cc1)N1CCC(n2cc(-c3ccccc3)nn2)CC1 [Example 80]
0.01 to 0.0999	O=C(c1ccc(C[C@@H]2CC[C@H]([C@H](O)c3ccccc3)N2)cc1)N1CCC(n2cncn2)CC1 [Example 92]
0.1 to 0.999	Cc1nc(C2CCN(C(=O)c3ccc(C[C@@H]4CC[C@H]([C@H](O)c5ccccc5)N4)cc3)CC2)ns1 [Example 89]
0.01 to 0.0999	O=C(c1ccc(C[C@@H]2CC[C@H]([C@H](O)c3ccccc3)N2)cc1)N1CCC(COc2ccncn2)CC1 [Example 162]
0.1 to 0.999	O=C(c1ccc(C[C@@H]2CC[C@H]([C@H](O)c3ccccc3)N2)cc1)N1CCC(n2ccccc2=O)CC1 [Example 70]
0.1 to 0.999	CC(Oc1ccncn1)C1CCN(C(=O)c2ccc(C[C@@H]3CC[C@H]([C@H](O)c4ccccc4)N3)cc2)CC1 (stereo partly shown) [Example 167]
0.01 to 0.0999	O=C(c1ccc(C[C@@H]2CC[C@H]([C@H](O)c3ccccc3)N2)cc1)N1CCC(S(=O)(=O)CC(F)(F)F)CC1 [Example 125]
0.1 to 0.999	O=C(c1ccc(C[C@@H]2CC[C@H]([C@H](O)c3ccccc3)N2)cc1)N1CCC(Cn2ccnc2)CC1 [Example 142]
0.1 to 0.999	O=C(c1ccc(C[C@@H]2CC[C@H]([C@H](O)c3ccccc3)N2)cc1)N1CCC(N2Cc3ccccc3NC2=O)CC1 [Example 72]
0.1 to 0.999	O=C(c1ccc(C[C@@H]2CC[C@H]([C@H](O)c3ccccc3)N2)cc1)N1CCC(c2nc3ccccc3o2)CC1 [Example 78]

Same assay, conditions: Table 7; cAMP, CHO cells; ranges as given for Tables 6 and 7; read-out: Human β3 agonist functional activity

SMILES	EC50 [µM]
CCOC(=O)C1C2CN(C(=O)c3ccc(CC4CCC(C(O)c5ccccc5)N4)cc3)CC21 (stereo not shown) [Example 230]	0.01 to 0.0999

Same assay, conditions: Table 8; Beta-3 agonist in vitro functional assay; read-out: Human β3 agonist functional activity

EC50 [µM]	SMILES
0.01 to 0.0999	O=C1CC2(CCN(C(=O)c3ccc(C[C@@H]4CC[C@H]([C@H](O)c5ccccc5)N4)cc3)CC2)Oc2ccccc21 [Example 323]
0.001 to 0.0099	CC1OC(=O)C2(CCN(C(=O)c3ccc(C[C@@H]4CC[C@H]([C@H](O)c5ccccc5)N4)cc3)CC2)C1C (stereo partly shown) [Example 297]
0.1 to 0.999	O=C(c1ccc(C[C@@H]2CC[C@H]([C@H](O)c3ccccc3)N2)cc1)N1CCC2(CCc3cn[nH]c32)CC1 [Example 321]
0.01 to 0.0999	Cc1ccc2c(c1)NC(=O)C21CCN(C(=O)c2ccc(C[C@@H]3CC[C@H]([C@H](O)c4ccccc4)N3)cc2)CC1 [Example 300]
0.01 to 0.0999	O=C(c1ccc(C[C@@H]2CC[C@H]([C@H](O)c3ccccc3)N2)cc1)N1CCC2(CCNC2=O)CC1 [Example 250]
0.001 to 0.0099	O=C1CC2(CCN(C(=O)c3ccc(C[C@@H]4CC[C@H]([C@H](O)c5ccccc5)N4)cc3)CC2)S(=O)(=O)c2ccccc21 [Example 338]
< 0.001	CN1CC(c2ccc(F)cc2)C2(CCN(C(=O)c3ccc(C[C@@H]4CC[C@H]([C@H](O)c5ccccc5)N4)cc3)CC2)C1=O (stereo partly shown) [Example 262]
0.01 to 0.0999	O=C(c1ccc(C[C@@H]2CC[C@H]([C@H](O)c3ccccc3)N2)cc1)N1CCC2(CC1)c1ccccc1CS2(=O)=O [Example 302]
0.001 to 0.0099	O=C1C=C(c2ccccc2)C2(CCN(C(=O)c3ccc(C[C@@H]4CC[C@H]([C@H](O)c5ccccc5)N4)cc3)CC2)O1 [Example 281]
0.1 to 0.999	O=C(c1ccc(C[C@@H]2CC[C@H]([C@H](O)c3ccccc3)N2)cc1)N1CCC2(CCCC2n2cccn2)CC1 (stereo partly shown) [Example 282]
0.001 to 0.0099	CC1(C)CC2(CCN(C(=O)c3ccc(C[C@@H]4CC[C@H]([C@H](O)c5cccnc5)N4)cc3)CC2)C(=O)O1 [Example 294]

Same assay, conditions: Table 9; Beta-3 agonist in vitro functional assay; read-out: Human β3 agonist functional activity

EC50 [µM]	SMILES
0.01 to 0.0999	O=C(c1ccc(C[C@@H]2CC[C@H]([C@H](O)c3ccccc3)N2)cc1)N1CCN(Cc2ncccc2C(F)(F)F)CC1 [Example 417]
0.01 to 0.0999	O=C(c1ccc(C[C@@H]2CC[C@H]([C@H](O)c3ccccc3)N2)cc1)N1CCN(c2nccc3ccccc23)CC1 [Example 373]
0.1 to 0.999	O=C(c1ccc(C[C@@H]2CC[C@H]([C@H](O)c3ccccc3)N2)cc1)N1CCN(c2ncccn2)CC1 [Example 370]
0.1 to 0.999	CS(=O)(=O)N1CCN(C(=O)c2ccc(C[C@@H]3CC[C@H]([C@H](O)c4ccccc4)N3)cc2)CC1 [Example 345]
0.001 to 0.0099	CC(C)(c1ccccc1F)N1CCN(C(=O)c2ccc(C[C@@H]3CC[C@H]([C@H](O)c4ccccc4)N3)cc2)CC1 [Example 412]
0.01 to 0.0999	O=C(c1ccc(C[C@@H]2CC[C@H]([C@H](O)c3ccccc3)N2)cc1)N1CCN(Cc2nccs2)CC1 [Example 394]
0.1 to 0.999	O=C(O)CN1CCN(C(=O)c2ccc(C[C@@H]3CC[C@H]([C@H](O)c4ccccc4)N3)cc2)CC1 [Example 390]
0.001 to 0.0099	CC(c1ccccn1)N1CCN(C(=O)c2ccc(CC3CCC(C(O)c4ccccc4)N3)cc2)CC1 (stereo not shown) [Example 430]
0.1 to 0.999	O=C(c1ccc(C[C@@H]2CC[C@H]([C@H](O)c3ccccc3)N2)cc1)N1CCN(c2ccc3c(c2)OCO3)CC1 [Example 353]
0.001 to 0.0099	O=C(c1ccc(C[C@@H]2CC[C@H]([C@H](O)c3ccccc3)N2)cc1)N1CCN(Cc2nc3ccccc3o2)CC1 [Example 403]
0.01 to 0.0999	Cn1ncnc1CN1CCN(C(=O)c2ccc(C[C@@H]3CC[C@H]([C@H](O)c4ccccc4)N3)cc2)CC1 [Example 397]

Same assay, conditions: Table 10; Beta-3 agonist in vitro functional assay; read-out: Human β3 agonist functional activity

EC50 [µM]	SMILES
< 0.001	CC(C(=O)N1CCc2nc(C3CC3)sc2C1)N1CCN(C(=O)c2ccc(C[C@@H]3CC[C@H]([C@H](O)c4ccccc4)N3)cc2)CC1 (stereo partly shown) [Example 505]
0.01 to 0.0999	CC(C(=O)NCC1CC1(C)C)N1CCN(C(=O)c2ccc(C[C@@H]3CC[C@H]([C@H](O)c4ccccc4)N3)cc2)CC1 (stereo partly shown) [Example 450]
0.1 to 0.999	COCCNC(=O)C(C)N1CCN(C(=O)c2ccc(C[C@@H]3CC[C@H]([C@H](O)c4ccccc4)N3)cc2)CC1 (stereo partly shown) [Example 442]
0.01 to 0.0999	CC[C@@H](C)NC(=O)C(C)N1CCN(C(=O)c2ccc(C[C@@H]3CC[C@H]([C@H](O)c4ccccc4)N3)cc2)CC1 (stereo partly shown) [Example 440]
0.01 to 0.0999	CC(C(=O)NC1(c2ccccn2)CC1)N1CCN(C(=O)c2ccc(C[C@@H]3CC[C@H]([C@H](O)c4ccccc4)N3)cc2)CC1 (stereo partly shown) [Example 470]
0.01 to 0.0999	CC(C(=O)N1CCC(O)CC1)N1CCN(C(=O)c2ccc(C[C@@H]3CC[C@H]([C@H](O)c4ccccc4)N3)cc2)CC1 (stereo partly shown) [Example 489]
0.01 to 0.0999	CNC(=O)C(C)N1CCN(C(=O)c2ccc(C[C@@H]3CC[C@H]([C@H](O)c4ccccc4)N3)cc2)CC1 (stereo partly shown) [Example 435]
0.01 to 0.0999	CC(C(=O)N1CCC(F)CC1)N1CCN(C(=O)c2ccc(C[C@@H]3CC[C@H]([C@H](O)c4ccccc4)N3)cc2)CC1 (stereo partly shown) [Example 491]
0.001 to 0.0099	CC(C(=O)N1CC(O)(c2ccccc2)C1)N1CCN(C(=O)c2ccc(C[C@@H]3CC[C@H]([C@H](O)c4ccccc4)N3)cc2)CC1 (stereo partly shown) [Example 474]

Same assay, conditions: Table 11; cAMP, CHO cells; read-out: Human β3 agonist functional activity

EC50 [µM]	SMILES
0.1 to 0.999	O=C(c1ccc(C[C@@H]2CC[C@H]([C@H](O)c3ccccc3)N2)cc1)N1CCN(c2ccccn2)C(=O)C1 [Example 546]

Same assay, conditions: Table 12; human β3 functional activity given as ranges; read-out: Human β3 agonist functional activity

EC50 [µM]	SMILES
0.001 to 0.0099	O=C1OCCC1N1CCN(C(=O)c2ccc(CC3CCC(C(O)c4ccccc4)N3)cc2)CC1 (single isomer, unassigned) [Example 604]
0.001 to 0.0099	CC1CC2(CCN(C(=O)c3ccc(CC4CCC(C(O)c5ccccc5)N4)cc3)CC2)C(=O)O1 (single isomer, unassigned) [Example 561]
0.001 to 0.0099	O=C(c1ccc(CC2CCC(C(O)c3ccccc3)N2)cc1)N1CCN(C2CCc3cccnc32)CC1 (single isomer, unassigned) [Example 597]
0.001 to 0.0099	CCC1CC2(CCN(C(=O)c3ccc(CC4CCC(C(O)c5ccccc5)N4)cc3)CC2)C(=O)O1 (single isomer, unassigned) [Example 564]
0.01 to 0.0999	CCC(c1ccccn1)N1CCN(C(=O)c2ccc(CC3CCC(C(O)c4ccccc4)N3)cc2)CC1 (single isomer, unassigned) [Example 587]
0.001 to 0.0099	CC(c1ncc2ccccc2n1)N1CCN(C(=O)c2ccc(C[C@@H]3CC[C@H]([C@H](O)c4ccccc4)N3)cc2)CC1 (mixture of isomers) [Example 572]
0.001 to 0.0099	CC(C)C1CC2(CCN(C(=O)c3ccc(CC4CCC(C(O)c5ccccc5)N4)cc3)CC2)C(=O)O1 (single isomer, unassigned) [Example 567]
0.001 to 0.0099	CC(C)(C)C1CC2(CCN(C(=O)c3ccc(CC4CCC(C(O)c5ccccc5)N4)cc3)CC2)C(=O)O1 (single isomer, unassigned) [Example 570]
